Assay results as given in patent US10076504B2, “Glucagon antagonists” (Ligand Pharmaceuticals, Inc., priority 2014, dated 2018).

Key:
[1] = Liver microsome incubation; type: in vitro ADME, dog
Description: The compound of Formula IIIa (below) was incubated for 60 minutes at 37 C with mouse, rat, dog, monkey, and human liver microsomes.
Concentrations of IIIa were measured at multiple time points by LC-MS/MS. IIIa was stable with predicted clearance well below hepatic blood flow in all species.

[2] = Single ascending dose study, safety and tolerability; type: in vivo, human; conditions: for Any study drug related TEAE / Gastrointestinal disorders Diarrhoea / Gastrointestinal disorders Nausea / Gastrointestinal disorders Vomiting / Nervous systems disorders Headache: Normal Healthy Volunteers, 6 subjects; for tolerability: single oral doses 2 to 480 mg in NHV, 40 mg in T2DM subjects
Description: Oral doses of IIIa were administered to normal healthy volunteers (NHV) and subjects with type 2 diabetes mellitus (T2DM). A single center, randomized, double-blind, placebo-controlled single ascending dose study was done in both NHV (n=48) and T2DM subjects (n=8). Dose escalation only occurred after review of safety and tolerability data from previous dose levels (n=8/cohort; 2-placebo & 6-IIIa). Dosing of the T2DM cohort was initiated only after the equivalent dose had been administered to NHV and safety data had been reviewed. All subjects were administered IIIa in the morning after an overnight fast with the exception of the NHV in the 40 mg cohort. NHV subjects in the 40 mg cohort initially received IIIa in a fasted state. Following a 3 week washout period, IIIa was readministered after breakfast at 40 mg to determine the effects of food consumption on pharmacokinetics.
This was a single center, randomized, double-blind, placebo-controlled single ascending dose study in both normal healthy volunteers (NHV) (n=48) and subjects with type 2 diabetes mellitus (T2DM) (n=8). All subjects were administered Formula IIIa as a solution formulated with Captisol® after an overnight fast with the exception of the NHV in the 40 mg cohort. The NHV 40 mg cohort initially received Formula IIIa in a fasted state. Following a washout period, subjects received 40 mg Formula IIIa after breakfast to explore the effects of food consumption on pharmacokinetics.
In type 2 diabetes mellitus (T2DM), inappropriately elevated levels of glucagon exacerbate hyperglycemia and its associated complications. Not wishing to be bound to a particular theory, it has been observed that antagonism of glucagon action reduces blood glucose levels and hemoglobin A1c in patients with T2DM. The novel, selective, orally bioavailable glucagon receptor antagonist, Formula IIIa (below), was investigated regarding its pharmacokinetics (PK), safety, and pharmacodynamics (PD) in a first-in-human, ascending, single-dose, double blind, placebo-controlled study in normal healthy (NH) and T2DM subjects (NCT01919684).

[3] = NHV and T2DM subjects, single dose

## Cc1cc(C)c(-c2ccc(NC(=O)[C@H](Cc3ccc(C(=O)NCCS(=O)(=O)O)cc3)c3ccc(-c4ccc(C(C)(C)C)cc4)cc3)cc2)c(C)c1 [IIIa]
[1]; Dog liver microsomes, 60 minutes at 37 C
  1st-order kinetic rate constant: 0.0016 min⁻¹
[1]; Dog, from liver microsomes
  Predicted systemic clearance: 4.01 mL/min/kg body weight
[2]; [3]
  cases of hypoglycemia (glucose <60 mg/dL): no cases of hypoglycemia
  serious adverse events: no serious adverse events
[2]; 2 mg
  Any study drug related TEAE: 0 (0.0)
  Gastrointestinal disorders Diarrhoea: 0 (0.0)
  Gastrointestinal disorders Nausea: 0 (0.0)
  Gastrointestinal disorders Vomiting: 0 (0.0)
  Nervous systems disorders Headache: 0 (0.0)
[2]; 10 mg
  Any study drug related TEAE: 1 (16.7)
  Gastrointestinal disorders Diarrhoea: 0 (0.0)
  Gastrointestinal disorders Nausea: 0 (0.0)
  Gastrointestinal disorders Vomiting: 0 (0.0)
  Nervous systems disorders Headache: 1 (16.7)
[2]; 40 mg
  Any study drug related TEAE: 0 (0.0)
  Gastrointestinal disorders Diarrhoea: 0 (0.0)
  Gastrointestinal disorders Nausea: 0 (0.0)
  Gastrointestinal disorders Vomiting: 0 (0.0)
  Nervous systems disorders Headache: 0 (0.0)
[2]; 120 mg
  Any study drug related TEAE: 2 (33.3)
  Gastrointestinal disorders Diarrhoea: 0 (0.0)
  Gastrointestinal disorders Nausea: 0 (0.0)
  Gastrointestinal disorders Vomiting: 0 (0.0)
  Nervous systems disorders Headache: 2 (33.3)
[2]; 240 mg
  Any study drug related TEAE: 2 (33.3)
  Gastrointestinal disorders Diarrhoea: 0 (0.0)
  Gastrointestinal disorders Nausea: 1 (16.7)
  Gastrointestinal disorders Vomiting: 0 (0.0)
  Nervous systems disorders Headache: 1 (16.7)
[2]; 480 mg
  Any study drug related TEAE: 2 (33.3)
  Gastrointestinal disorders Diarrhoea: 1 (16.7)
  Gastrointestinal disorders Nausea: 1 (16.7)
  Gastrointestinal disorders Vomiting: 1 (16.7)
  Nervous systems disorders Headache: 0 (0.0)
[2]; single dose
  study drug related treatment emergent adverse events (TEAE), NHV vs T2DM subjects: observed in the NHV but not the T2DM subjects
[2]
  tolerability: well tolerated
[2]; listed as Formula IIIa
  tolerability: well tolerated and considered safe up to the highest dose tested
